Results: ChEMBL document CHEMBL5038624, “Construction and activity evaluation of novel dual-target (SE/CYP51) anti-fungal agents containing amide naphthyl structure” (Eur J Med Chem, 2022)
Values after ≈ are worked out from the molar mass of the structure shown. Active and inactive are the calls of the source. The calls are words filed in the database; no cut-off is given here.

Tests used:
Pichia kudriavzevii = assay: Antifungal activity against Candida krusei ATCC 6258 assessed as reduction in fungal growth incubated for 72 hrs by CLSI protocol based broth microdilution method; assay type: functional
Candida albicans [1] = assay: Antifungal activity against Candida albicans strain CaR assessed as reduction in fungal growth incubated for 72 hrs by CLSI protocol based broth microdilution method; assay type: functional
Candida albicans [2] = assay: Antifungal activity against Candida albicans ATCC SC5314 assessed as irregular cell structure incubated for 48 hrs by TEM analysis; assay type: functional, organism-based
Candida albicans [3] = assay: Induction of apoptosis against Candida albicans ATCC SC5314 assessed as mild apoptotic cells measured after 48 hrs by Annexin V-FITC/propidium iodide staining based flow cytometry (Rvb =0.29 %); assay type: functional
[4] = Toxicity in mouse infected with Candida albicans ATCC SC5314 assessed as effect on spleen at 4 mg/kg,ip administrated every 2 days for 14 days by hematoxylin-eosin staining based assay; assay type: organism-based; conditions: in vivo, 336 h, time 14 day
Candida albicans [5] = assay: Inhibition of SE/CYP51 in Candida albicans ATCC SC5314 assessed as squalene level incubated for 48 hrs by LC/MS analysis; set-up: scale not given: the % may be the effect or the level left
Candida albicans [6] = assay: Antifungal activity against Candida albicans ATCC SC5314 infected in mouse assessed as decrease in fungal infection at 4 mg/kg,ip administrated every 2 days for 14 days; assay type: functional, organism-based; conditions: time 14.0 day
Candida albicans [7] = assay: Induction of apoptosis against Candida albicans ATCC SC5314 assessed as necrotic cells measured after 48 hrs by Annexin V-FITC/propidium iodide staining based flow cytometry (reference value: 18.22 %); assay type: functional
Candida albicans [8] = assay: Inhibition of SE/CYP51 in Candida albicans ATCC SC5314 assessed as unknown sterol level incubated for 48 hrs by LC/MS analysis; set-up: scale not given: the % may be the effect or the level left
Candida albicans [9] = assay: Antifungal activity against Candida albicans ATCC SC5314 assessed as decrease in fungal cell density by fluorescence microscopy; assay type: functional, organism-based
Candida albicans [10] = assay: Antifungal activity against Candida albicans ATCC SC5314 assessed as irregular cell structure incubated for 72 hrs by TEM analysis; assay type: functional, organism-based
[11] = Toxicity in mouse assessed as effect on aspartate transaminase level; conditions: in vivo
[12] = Toxicity in mouse assessed as effect on blood urea nitrogen level; conditions: in vivo
Candida albicans [13] = assay: Antifungal activity against Candida albicans strain 904 assessed as reduction in fungal growth incubated for 72 hrs by CLSI protocol based broth microdilution method; assay type: functional
Candida albicans [14] = assay: Inhibition of SE/CYP51 in Candida albicans ATCC SC5314 assessed as eburicol level incubated for 48 hrs by LC/MS analysis; set-up: scale not given: the % may be the effect or the level left
Candida albicans [15] = assay: Antifungal activity against Candida albicans SC5314 assessed as reduction in fungal growth incubated for 72 hrs by CLSI protocol based broth microdilution method; assay type: functional
Candida tropicalis = assay: Antifungal activity against Candida tropicalis ATCC 1369 assessed as reduction in fungal growth incubated for 72 hrs by CLSI protocol based broth microdilution method; assay type: functional
Candida albicans [16] = assay: Induction of apoptosis against Candida albicans ATCC SC5314 assessed as late apoptotic cells measured after 48 hrs by Annexin V-FITC/propidium iodide staining based flow cytometry (reference value: 0.71 %); assay type: functional
[17] = Toxicity in mouse infected with Candida albicans ATCC SC5314 assessed as effect on kidney at 4 mg/kg,ip administrated every 2 days for 14 days by hematoxylin-eosin staining based assay; assay type: organism-based; conditions: in vivo, 336 h, time 14 day
Candida albicans [18] = assay: Antifungal activity against Candida albicans strain 632 assessed as reduction in fungal growth incubated for 72 hrs by CLSI protocol based broth microdilution method; assay type: functional
Candida albicans [19] = assay: Antifungal activity against Candida albicans ATCC SC5314 assessed as disappearance of fungal cell boundaries incubated for 96 hrs by TEM analysis; assay type: functional, organism-based
Candida albicans [20] = assay: Inhibition of SE/CYP51 in Candida albicans ATCC SC5314 assessed as ergosterol level incubated for 48 hrs by LC/MS analysis; set-up: scale not given: the % may be the effect or the level left
Candida albicans [21] = assay: Induction of apoptosis against Candida albicans ATCC SC5314 assessed as viable cells measured after 48 hrs by Annexin V-FITC/propidium iodide staining based flow cytometry (reference value: 80.78 %); assay type: functional
Nakaseomyces glabratus = assay: Antifungal activity against Candida glabrata ATCC 0001 assessed as reduction in fungal growth incubated for 72 hrs by CLSI protocol based broth microdilution method; assay type: functional
[22] = Toxicity in mouse infected with Candida albicans ATCC SC5314 assessed as effect on heart at 4 mg/kg,ip administrated every 2 days for 14 days by hematoxylin-eosin staining based assay; assay type: organism-based; conditions: in vivo, 336 h, time 14 day
[23] = Toxicity in mouse infected with Candida albicans ATCC SC5314 assessed as effect on liver at 4 mg/kg,ip administrated every 2 days for 14 days by hematoxylin-eosin staining based assay; assay type: organism-based; conditions: in vivo, 336 h, time 14 day
[24] = Toxicity in mouse infected with Candida albicans ATCC SC5314 assessed as effect on lung at 4 mg/kg,ip administrated every 2 days for 14 days by hematoxylin-eosin staining based assay; assay type: organism-based; conditions: in vivo, 336 h, time 14 day
Mus musculus = assay: Antifungal activity against Candida albicans ATCC SC5314 infected in mouse assessed as increase in body weight at 4 mg/kg,ip administrated every 2 days for 14 days; assay type: functional, organism-based; conditions: time 14.0 day
[25] = Toxicity in mouse assessed as effect on alanine transaminase level; conditions: in vivo
Candida albicans [26] = assay: Antifungal activity against Candida albicans strain 901 assessed as reduction in fungal growth incubated for 72 hrs by CLSI protocol based broth microdilution method; assay type: functional
[27] = target: Lanosterol 14-alpha demethylase (Candida albicans (strain SC5314 / ATCC MYA-2876) (Yeast), UniProt P10613); assay: Inhibition of CYP51 in Candida albicans ATCC SC5314 measured after 30 mins by HPLC analysis
Candida albicans [28] = assay: Antifungal activity against Candida albicans ATCC SC5314 infected in mouse assessed as reduction on endothelial fungal infection at 4 mg/kg,ip administrated every 2 days for 14 days by hematoxylin-eosin staining based assay; assay type: functional, organism-based; conditions: time 14.0 day
Aspergillus fumigatus = assay: Antifungal activity against Aspergillus fumigatus KM8001 assessed as reduction in fungal growth incubated for 72 hrs by CLSI protocol based broth microdilution method; assay type: functional
[29] = Inhibition of SE in Candida albicans ATCC SC5314 measured after 30 mins by HPLC analysis
Candida albicans [30] = assay: Antifungal activity against Candida albicans strain 17 assessed as reduction in fungal growth incubated for 72 hrs by CLSI protocol based broth microdilution method; assay type: functional
Candida albicans [31] = assay: Inhibition of SE/CYP51 in Candida albicans ATCC SC5314 assessed as lanosterol level incubated for 48 hrs by LC/MS analysis; set-up: scale not given: the % may be the effect or the level left

Lanosterol 14-alpha demethylase, sequence (P10613 whole entry): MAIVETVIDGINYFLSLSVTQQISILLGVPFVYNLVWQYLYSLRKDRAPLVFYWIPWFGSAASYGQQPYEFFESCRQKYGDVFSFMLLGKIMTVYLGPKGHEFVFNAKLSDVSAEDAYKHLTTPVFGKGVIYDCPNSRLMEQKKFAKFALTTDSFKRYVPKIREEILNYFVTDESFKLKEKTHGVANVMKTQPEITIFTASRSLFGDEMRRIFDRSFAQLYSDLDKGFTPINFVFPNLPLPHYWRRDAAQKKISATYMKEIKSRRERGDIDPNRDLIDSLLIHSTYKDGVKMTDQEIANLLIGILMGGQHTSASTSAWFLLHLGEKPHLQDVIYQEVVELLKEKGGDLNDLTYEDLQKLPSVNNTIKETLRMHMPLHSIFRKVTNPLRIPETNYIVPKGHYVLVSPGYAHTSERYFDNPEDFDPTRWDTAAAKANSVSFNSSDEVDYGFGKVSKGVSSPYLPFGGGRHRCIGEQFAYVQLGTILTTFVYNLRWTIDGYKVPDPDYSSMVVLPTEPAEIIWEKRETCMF

Structure (SMILES)	MIC50 (Pichia kudriavzevii) [µg/mL]	MIC50 (Candida albicans [1]) [µg/mL]	Activity (Candida albicans [3]) [%]	Activity [4]	Activity (Candida albicans [5]) [%]	Activity (Candida albicans [6])	Activity (Candida albicans [7]) [%]	Activity (Candida albicans [8]) [%]	Activity (Candida albicans [9])	Activity [11] [IU/L]	Activity [12] [mmol/L]	MIC50 (Candida albicans [13]) [µg/mL]	Activity (Candida albicans [14]) [%]	MIC50 (Candida albicans [15]) [µg/mL]	MIC50 (Candida tropicalis) [µg/mL]	Activity (Candida albicans [16]) [%]	Activity [17]	MIC50 (Candida albicans [18]) [µg/mL]	Activity (Candida albicans [20]) [%]	Activity (Candida albicans [21]) [%]	also measured
O=C(/C=C/c1cccc2ccccc12)NC(Cn1cncn1)c1ccccc1 (centres undefined)	0.25 (≈ 0.679 µM)	2 (≈ 5.43 µM)	0.26	Non-Toxic	29.5	Active	46.23	7	Active	118	6.1	2 (≈ 5.43 µM)	32.9	0.125 (≈ 0.339 µM)	0.125 (≈ 0.339 µM)	1.24	Non-Toxic	2 (≈ 5.43 µM)	19.2	52.27	Activity (Candida albicans [2]): Active; Activity (Candida albicans [10]): Active; Activity (Candida albicans [19]): Active; MIC50 (Nakaseomyces glabratus): 0.25 µg/mL (≈ 0.679 µM); Activity [22]: Non-Toxic; Activity [23]: Non-Toxic; Activity [24]: Non-Toxic; Activity (Mus musculus): Active; Activity [25]: 101.6 IU/L; MIC50 (Candida albicans [26]): 1 µg/mL (≈ 2.71 µM); IC50 [27]: 209 nM; Activity (Candida albicans [28]): Active; MIC50 (Aspergillus fumigatus): 2 µg/mL (≈ 5.43 µM); IC50 [29]: 930 nM; MIC50 (Candida albicans [30]): 2 µg/mL (≈ 5.43 µM); Activity (Candida albicans [31]): 11.4%
O=C(/C=C/c1ccc2ccccc2c1)NC(Cn1cncn1)C(=O)c1ccccc1 (centres undefined)	0.5 (≈ 1.26 µM)	2 (≈ 5.04 µM)	0.36	Non-Toxic	28.9	Active	43.87	6.4	Active	107.5	6.8	4 (≈ 10.1 µM)	34.7	0.125 (≈ 0.315 µM)	0.25 (≈ 0.631 µM)	1.11	Non-Toxic	2 (≈ 5.04 µM)	16.4	54.66	MIC50 (Nakaseomyces glabratus): 0.125 µg/mL (≈ 0.315 µM); Activity [22]: Non-Toxic; Activity [23]: Non-Toxic; Activity [24]: Non-Toxic; Activity (Mus musculus): Active; Activity [25]: 96.5 IU/L; MIC50 (Candida albicans [26]): 4 µg/mL (≈ 10.1 µM); IC50 [27]: 323 nM; Activity (Candida albicans [28]): Active; MIC50 (Aspergillus fumigatus): 2 µg/mL (≈ 5.04 µM); IC50 [29]: 650 nM; MIC50 (Candida albicans [30]): 4 µg/mL (≈ 10.1 µM); Activity (Candida albicans [31]): 13.6%
